# Laboratory results published in US10913727B2, “Modulators of the integrated stress pathway” (Calico Life Sciences LLC, priority 2016, dated 2021).
# pEC50: −log10 of the molar value.
# Tested on: HEK293T cells carrying the ATF4 luciferase reporter
# Assay: ATF4-Luc assay, in vitro model of Vanishing Cell White Matter Disease (VWMD)
# Format: cell-based
# Conditions: Homo sapiens, HEK-293T, 1 μg/mL tunicamycin, 7 hours, One Glo luminescence
# Experimental: In order to test exemplary compounds of the invention in a cellular context, a stable VWMD cell line was first constructed. The ATF4 reporter was prepared by fusing the human full-length ATF4 5′-UTR (NCBI Accession No. BC022088.2) in front of the firefly luciferase (FLuc) coding sequence lacking the initiator methionine as described in Sidrauski et al (eLife 2013). The construct was used to produce recombinant retroviruses using standard methods and the resulting viral supernatant was used to transduce HEK293T cells, which were then subsequently selected with puromycin to generate a stable cell line.
# HEK293T cells carrying the ATF4 luciferase reporter were plated on polylysine coated 384-well plates (Greiner Bio-one) at 30,000 cells per well. Cells were treated the next day with 1 μg/mL tunicamycin and 200 nM of a compound of Formula (I) for 7 hours. Luminescence was measured using One Glo (Promega) as specified by the manufacturer. Cells were maintained in DMEM with L-glutamine supplemented with 10% heat-inactivated FBS (Gibco) and Antibiotic-Antimycotic solution (Gibco).
# Table 2 below summarizes the EC50 data obtained using the ATF4-Luc assay for exemplary compounds of the invention.
row,Compound,pEC50
1,"Cc1cnc(C(=O)NC23CCC(NC(=O)COc4ccc(Cl)c(Cl)c4)(CC2)[C@@H](O)C3)cn1 [Compound 735, N-{(3S)-4-[2-(3,4-dichlorophenoxy)acetamido]-3-hydroxybicyclo[2.2.2]octan-1-yl}-5-methylpyrazine-2-carboxamide]",> 7.30
2,"CCc1cc(C(=O)NC23CCC(NC(=O)COc4ccc(Cl)c(Cl)c4)(CC2)[C@@H](O)C3)on1 [Compound 694, N-{(3S)-4-[2-(3,4-dichlorophenoxy)acetamido]-3-hydroxybicyclo[2.2.2]octan-1-yl}-3-ethyl-1,2-oxazole-5-carboxamide]",> 7.30
3,"Cc1cc2c(NC34CC(NC(=O)COc5ccc(OC(F)(F)F)c(F)c5)(C3)C4)nccn2n1 [Compound 496, 2-[3-fluoro-4-(trifluoromethoxy)phenoxy]-N-{3-[(2-methylpyrazolo[1,5-a]pyrazin-4-yl)amino]bicyclo[1.1.1]pentan-1-yl}acetamide]",6.60 to 7.30
4,"O=C(COc1ccc(Cl)c(F)c1)NC12CCC(NC(=O)c3cccnc3)(C1)C2 [Compound 477, N-{4-[2-(4-chloro-3-fluorophenoxy)acetamido]bicyclo[2.1.1]hexan-1-yl}pyridine-3-carboxamide]",5.70 to 6.00
5,"O=C(COc1ccc(Cl)c(Cl)c1)NC12CC(NC(=O)c3ccc(OC(F)F)cn3)(C1)C2 [Compound 153, N-{3-[2-(3,4-dichlorophenoxy)acetamido]bicyclo[1.1.1]pentan-1-yl}-5-(difluoromethoxy)pyridine-2-carboxamide]",6.60 to 7.30
6,"O=C(COc1ccc(Cl)c(F)c1)NC12CC(NC(=O)c3cc4ccccn4n3)(C1)C2 [Compound 119, N-{3-[2-(4-chloro-3-fluorophenoxy)acetamido]bicyclo[1.1.1]pentan-1-yl}pyrazolo[1,5-a]pyridine-2-carboxamide]",6.00 to 6.60
7,"O=C(COc1ccc(Cl)c(F)c1)NC12CCC(NC(=O)c3cn4ccccc4n3)(CC1)CC2O (stereo not shown) [Compound 601, N-{4-[2-(4-chloro-3-fluorophenoxy)acetamido]-3-hydroxybicyclo[2.2.2]octan-1-yl}imidazo[1,2-a]pyridine-2-carboxamide]",6.00 to 6.60
8,"O=C(COc1ccc(Cl)c(F)c1)NC12CC(NC(=O)c3cccc(F)c3)(C1)C2 [Compound 508, N-{3-[2-(4-chloro-3-fluorophenoxy)acetamido]bicyclo[1.1.1]pentan-1-yl}-3-fluorobenzamide]",6.60 to 7.30
9,"O=C(COc1ccc(Cl)c(F)c1)NC12CCC(NC(=O)c3ccccc3F)(CC1)C[C@@H]2O [Compound 560, N-{(3S)-4-[2-(4-chloro-3-fluorophenoxy)acetamido]-3-hydroxybicyclo[2.2.2]octan-1-yl}-2-fluorobenzamide]",6.60 to 7.30
10,"O=C(COc1ccc(Cl)c(F)c1)NC12CC(NC(=O)c3ccc(Cl)c(F)c3)(C1)C2 [Compound 692, 4-chloro-N-{3-[2-(4-chloro-3-fluorophenoxy)acetamido]bicyclo[1.1.1]pentan-1-yl}-3-fluorobenzamide]",6.60 to 7.30
11,"Cc1nc(C)c(C(=O)NC23CC(NC(=O)COc4ccc(Cl)c(F)c4)(C2)C3)o1 [Compound 847, N-{3-[2-(4-chloro-3-fluorophenoxy)acetamido]bicyclo[1.1.1]pentan-1-yl}-2,4-dimethyl-1,3-oxazole-5-carboxamide]",6.00 to 6.60
12,"O=C(COc1ccc(Cl)c(F)c1)NC12CC(NC(=O)c3sccc3F)(C1)C2 [Compound 796, N-{3-[2-(4-chloro-3-fluorophenoxy)acetamido]bicyclo[1.1.1]pentan-1-yl}-3-fluorothiophene-2-carboxamide]",< 5.70
13,"O=C(COc1ccc(Cl)c(F)c1)NC12CC(NC(=O)c3ccc(OC(F)(F)F)cn3)(C1)C2 [Compound 117, N-{3-[2-(4-chloro-3-fluorophenoxy)acetamido]bicyclo[1.1.1]pentan-1-yl}-5-(trifluoromethoxy)pyridine-2-carboxamide]",> 7.30
14,"O=C(COc1ccc(Cl)c(F)c1)NC12CCC(NC(=O)c3ccc(Cl)cn3)(CC1)C[C@@H]2O [Compound 730, 5-chloro-N-{(3S)-4-[2-(4-chloro-3-fluorophenoxy)acetamido]-3-hydroxybicyclo[2.2.2]octan-1-yl}pyridine-2-carboxamide]",6.60 to 7.30
15,"CSc1sc(C(=O)NC23CC(NC(=O)COc4ccc(Cl)c(F)c4)(C2)C3)cc1C#N [Compound 897, N-{3-[2-(4-chloro-3-fluorophenoxy)acetamido]bicyclo[1.1.1]pentan-1-yl}-4-cyano-5-(methylsulfanyl)thiophene-2-carboxamide]",< 5.70
16,"Cc1cc(C(=O)NC23CCC(NC(=O)COc4ccc(Cl)c(Cl)c4)(C2)C3)nn1-c1ccc(Cl)cc1 [Compound 111, 1-(4-chlorophenyl)-N-{4-[2-(3,4-dichlorophenoxy)acetamido]bicyclo[2.1.1]-hexan-1-yl}5-methyl-1H-pyrazole-3-carboxamide]",< 5.70

row,Compound,pEC50
1,"CSc1ccccc1C(=O)NC12CC(NC(=O)COc3ccc(Cl)c(F)c3)(C1)C2 [Compound 866, N-{3-[2-(4-chloro-3-fluorophenoxy)acetamido]bicyclo[1.1.1]pentan-1-yl}-2-(methylsulfanyl)benzamide]",< 5.70
2,"COc1cc(C(=O)NC23CC(NC(=O)COc4ccc(Cl)c(Cl)c4)(C2)C3)on1 [Compound 709, N-{3-[2-(3,4-dichlorophenoxy)acetamido]bicyclo[1.1.1]pentan-1-yl}-3-methoxy-1,2-oxazole-5-carboxamide]",6.60 to 7.30
3,"NC(=O)c1nccnc1C(=O)NC12CC(NC(=O)COc3ccc(Cl)c(F)c3)(C1)C2 [Compound 853, N-2-{3-[2-(4-chloro-3-fluorophenoxy)acetamido]bicyclo[1.1.1]pentan-1-yl}pyrazine-2,3-dicarboxamide]",< 5.70
4,"O=C(COc1ccc(Cl)c(F)c1)NC12CC(NC(=O)c3cccc(-n4cnnc4)c3)(C1)C2 [Compound 902, N-{3-[2-(4-chloro-3-fluorophenoxy)acetamido]bicyclo[1.1.1]pentan-1-yl}-3-(4H-1,2,4-triazol-4-yl)benzamide]",< 5.70
5,"COc1ccc(C(=O)NC23CCC(NC(=O)COc4ccc(Cl)c(F)c4)(CC2)C(O)C3)nc1 (stereo not shown) [Compound 922, N-{4-[2-(4-chloro-3-fluorophenoxy)acetamido]-3-hydroxybicyclo[2.2.2]octan-1-yl}-5-methoxypyridine-2-carboxamide]",6.00 to 6.60
6,"O=C(COc1ccc(Cl)c(F)c1)NC12CCC(NC(=O)c3ccc(C(F)F)s3)(CC1)CC2O (stereo not shown) [Compound 623, N-{4-[2-(4-chloro-3-fluorophenoxy)acetamido]-3-hydroxybicyclo[2.2.2]octan-1-yl}-5-(difluoromethyl)thiophene-2-carboxamide]",6.60 to 7.30
7,"Cc1nc(C(F)(F)F)c(C(=O)NC23CC(NC(=O)COc4ccc(Cl)c(F)c4)(C2)C3)s1 [Compound 837, N-{3-[2-(4-chloro-3-fluorophenoxy)acetamido]bicyclo[1.1.1]pentan-1-yl}-2-methyl-4-(trifluoromethyl)-1,3-thiazole-5-carboxamide]",< 5.70
8,"O=C(COc1ccc(Cl)c(F)c1)NC12CC(NC(=O)c3cnn4c3CCCC4)(C1)C2 [Compound 903, N-{3-[2-(4-chloro-3-fluorophenoxy)acetamido]bicyclo[1.1.1]pentan-1-yl}-4,5,6,7-tetrahydropyrazolo[1,5-a]pyridine-3-carboxamide]",< 5.70
9,"CC(=O)Nc1ccc(F)cc1C(=O)NC12CC(NC(=O)COc3ccc(Cl)c(F)c3)(C1)C2 [Compound 765, 2-acetamido-N-{3-[2-(4-chloro-3-fluorophenoxy)acetamido]bicyclo[1.1.1]pentan-1-yl}-5-fluorobenzamide]",6.60 to 7.30
10,"O=C(COc1ccc(Cl)c(Cl)c1)NC12CCC(NC(=O)c3cc(C(F)F)no3)(CC1)C[C@@H]2O [Compound 758, N-{(3S)-4-[2-(3,4-dichlorophenoxy)acetamido]-3-hydroxybicyclo[2.2.2]octan-1-yl}-3-(difluoromethyl)-1,2-oxazole-5-carboxamide]",> 7.30
11,"O=C(COc1ccc(Cl)c(F)c1)NC12CCC(NC(=O)c3csc(C4CC4)n3)(CC1)C[C@@H]2O [Compound 751, N-{(3S)-4-[2-(4-chloro-3-fluorophenoxy)acetamido]-3-hydroxybicyclo[2.2.2]octan-1-yl}-2-cyclopropyl-1,3-thiazole-4-carboxamide]",> 7.30
12,"Cc1ocnc1C(=O)NC12CC(NC(=O)COc3ccc(Cl)c(F)c3)(C1)C2 [Compound 909, N-{3-[2-(4-chloro-3-fluorophenoxy)acetamido]bicyclo[1.1.1]pentan-1-yl}-5-methyl-1,3-oxazole-4-carboxamide]",< 5.70
13,"N#Cc1ccnc(C(=O)NC23CCC(NC(=O)COc4ccc(Cl)c(F)c4)(CC2)C(O)C3)c1 (stereo not shown) [Compound 932, N-{4-[2-(4-chloro-3-fluorophenoxy)acetamido]-3-hydroxybicyclo[2.2.2]octan-1-yl}-4-cyanopyridine-2-carboxamide]",6.60 to 7.30
14,"O=C(COc1ccc(Cl)c(Cl)c1)NC12CC(NC(=O)c3cc(OC(F)F)ccn3)(C1)C2 [Compound 716, N-{3-[2-(3,4-dichlorophenoxy)acetamido]bicyclo[1.1.1]pentan-1-yl}-4-(difluoromethoxy)pyridine-2-carboxamide]",6.00 to 6.60
15,"Cc1ncoc1C(=O)NC12CC(NC(=O)COc3ccc(Cl)c(F)c3)(C1)C2 [Compound 869, N-{3-[2-(4-chloro-3-fluorophenoxy)acetamido]bicyclo[1.1.1]pentan-1-yl}-4-methyl-1,3-oxazole-5-carboxamide]",< 5.70
